Measurements published in patent publication US20240132431A1, “METHOD FOR ALKYLATING ACIDIC FUNCTIONAL GROUP” (Chugai Seiyaku Kabushiki Kaisha, priority 2021, published 2024).

Target: T1, Bcl-2 protein (Recombinant Human Bcl-2 Protein) (Homo sapiens, UniProt P10415)
T1 construct: purchased Novus NBP2-34889
Assay: Binding evaluation of mixture library compounds to Bcl-2 using AS-MS (affinity selection mass spectrometry)
How it was run: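 Pooled library of ~1200 compounds ([…] each, final) incubated with recombinant human Bcl-2 (20 μM final) in Tris-HCl pH 7.4, NaCl, Tween-20, DTT buffer, dark, 23° C., 1 h. Bound fraction recovered by SEC spin column, organic extraction, reversed-phase LC/MS. ASMS Ratio (%) = (A−C)/B×100 versus protein-free standard and SEC blank.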

T1 sequence (P10415 whole entry): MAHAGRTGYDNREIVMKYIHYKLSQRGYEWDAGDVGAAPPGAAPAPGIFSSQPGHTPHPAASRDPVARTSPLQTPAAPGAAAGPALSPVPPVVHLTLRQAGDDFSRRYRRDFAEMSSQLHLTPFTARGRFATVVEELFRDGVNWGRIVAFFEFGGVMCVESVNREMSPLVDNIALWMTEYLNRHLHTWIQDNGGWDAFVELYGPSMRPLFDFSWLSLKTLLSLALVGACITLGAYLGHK

Compound	ASMS ratio (%) (n = 1)	ASMS ratio (%) (n = 2)
CCOc1cccc(-c2cc(C(=O)N3CCN(c4ccc(C(=O)NS(=O)(=O)c5ccc(NCCSc6ccccc6)c(C(F)(F)F)c5)cc4)CC3)cc(C(F)(F)F)c2)c1 [B2R039-01, 4-[4-[3-(3-Ethoxyphenyl)-5-(trifluoromethyl)benzoyl]piperazin-1-yl]-N-[4-(2-phenylsulfanylethylamino)-3-(trifluoromethyl)phenyl]sulfonylbenzamide]	9.7	−4.8
CCOc1cncc(-c2cc(C(=O)N3CCN(c4ccc(C(=O)NS(=O)(=O)c5ccc(NCCSc6ccccc6)c(C(F)(F)F)c5)cc4)CC3)cc(C(F)(F)F)c2)c1 [B2R040-01, 4-[4-[3-(5-Ethoxypyridin-3-yl)-5-(trifluoromethyl)benzoyl]piperazin-1-yl]-N-[4-(2-phenylsulfanylethylamino)-3-(trifluoromethyl)phenyl]sulfonylbenzamide]	2.6	0.2
CCOc1cccc(C#Cc2cc(C(=O)N3CCN(c4ccc(C(=O)NS(=O)(=O)c5ccc(NCCSc6ccccc6)c(C(F)(F)F)c5)cc4)CC3)cc(C(F)(F)F)c2)c1 [B2R041-01, 4-[4-[3-[2-(3-Ethoxyphenyl)ethynyl]-5-(trifluoromethyl)benzoyl]piperazin-1-yl]-N-[4-(2-phenylsulfanylethylamino)-3-(trifluoromethyl)phenyl]sulfonylbenzamide]	18.0	0.0
CCOc1cncc(C#Cc2cc(C(=O)N3CCN(c4ccc(C(=O)NS(=O)(=O)c5ccc(NCCSc6ccccc6)c(C(F)(F)F)c5)cc4)CC3)cc(C(F)(F)F)c2)c1 [B2R042-01, 4-[4-[3-[2-(5-Ethoxypyridin-3-yl)ethynyl]-5-(trifluoromethyl)benzoyl]piperazin-1-yl]-N-[4-(2-phenylsulfanylethylamino)-3-(trifluoromethyl)phenyl]sulfonylbenzamide]	3.4	6.0
CCOc1cccc(-c2cnn(-c3cc(C(=O)N4CCN(c5ccc(C(=O)NS(=O)(=O)c6ccc(NCCSc7ccccc7)c(C(F)(F)F)c6)cc5)CC4)cc(C(F)(F)F)c3)c2)c1 [B2R043-01, 4-[4-[3-[4-(3-Ethoxyphenyl)pyrazol-1-yl]-5-(trifluoromethyl)benzoyl]piperazin-1-yl]-N-[4-(2-phenylsulfanylethylamino)-3-(trifluoromethyl)phenyl]sulfonylbenzamide]	3.4	−9.0
CCOc1cncc(-c2cnn(-c3cc(C(=O)N4CCN(c5ccc(C(=O)NS(=O)(=O)c6ccc(NCCSc7ccccc7)c(C(F)(F)F)c6)cc5)CC4)cc(C(F)(F)F)c3)c2)c1 [B2R044-01, 4-[4-[3-[4-(5-Ethoxypyridin-3-yl)pyrazol-1-yl]-5-(trifluoromethyl)benzoyl]piperazin-1-yl]-N-[4-(2-phenylsulfanylethylamino)-3-(trifluoromethyl)phenyl]sulfonylbenzamide]	−3.7	−4.1
CCOc1cccc(-c2ccc(CN3CCN(c4ccc(C(=O)NS(=O)(=O)c5ccc(NCCSc6ccccc6)c(C(F)(F)F)c5)cc4)CC3)cc2C)c1 [B2R047-01, 4-[4-[[4-(3-Ethoxyphenyl)-3-methylphenyl]methyl]piperazin-1-yl]-N-[4-(2-phenylsulfanylethylamino)-3-(trifluoromethyl)phenyl]sulfonylbenzamide]	6.6	−7.8
CCOc1cncc(-c2ccc(CN3CCN(c4ccc(C(=O)NS(=O)(=O)c5ccc(NCCSc6ccccc6)c(C(F)(F)F)c5)cc4)CC3)cc2C)c1 [B2R048-01]	9.2	7.5
CCOc1cccc(-c2ccc(CN3CCN(c4ccc(C(=O)NS(=O)(=O)c5ccc(NCCSc6ccccc6)c(C(F)(F)F)c5)cc4)CC3)c(CC)c2)c1 [B2R049-01, 4-[4-[[4-(3-Ethoxyphenyl)-2-ethylphenyl]methyl]piperazin-1-yl]-N-[4-(2-phenylsulfanylethylamino)-3-(trifluoromethyl)phenyl]sulfonylbenzamide]	7.5	−5.5
CCOc1cncc(-c2ccc(CN3CCN(c4ccc(C(=O)NS(=O)(=O)c5ccc(NCCSc6ccccc6)c(C(F)(F)F)c5)cc4)CC3)c(CC)c2)c1 [B2R050-01, 4-[4-[[4-(5-Ethoxypyridin-3-yl)-2-ethylphenyl]methyl]piperazin-1-yl]-N-[4-(2-phenylsulfanylethylamino)-3-(trifluoromethyl)phenyl]sulfonylbenzamide]	0.0	0.0
CCOc1cccc(-c2ccc(CN3CCN(c4ccc(C(=O)NS(=O)(=O)c5ccc(NCCSc6ccccc6)c(C(F)(F)F)c5)cc4)CC3)cc2F)c1 [B2R051-01, 4-[4-[[4-(3-Ethoxyphenyl)-3-fluorophenyl]methyl]piperazin-1-yl]-N-[4-(2-phenylsulfanylethylamino)-3-(trifluoromethyl)phenyl]sulfonylbenzamide]	12.7	−1.8
CCOc1cncc(-c2ccc(CN3CCN(c4ccc(C(=O)NS(=O)(=O)c5ccc(NCCSc6ccccc6)c(C(F)(F)F)c5)cc4)CC3)cc2F)c1 [B2R052-01, 4-[4-[[4-(5-Ethoxypyridin-3-yl)-3-fluorophenyl]methyl]piperazin-1-yl]-N-[4-(2-phenylsulfanylethylamino)-3-(trifluoromethyl)phenyl]sulfonylbenzamide]	0.0	−7.4
CCOc1cccc(-c2ccc(CN3CCN(c4ccc(C(=O)NS(=O)(=O)c5ccc(NCCSc6ccccc6)c(C(F)(F)F)c5)cc4)CC3)c(OC)c2)c1 [B2R053-01, 4-[4-[[4-(3-Ethoxyphenyl)-2-methoxyphenyl]methyl]piperazin-1-yl]-N-[4-(2-phenylsulfanylethylamino)-3-(trifluoromethyl)phenyl]sulfonylbenzamide]	−15.0	0.0
CCOc1cncc(-c2ccc(CN3CCN(c4ccc(C(=O)NS(=O)(=O)c5ccc(NCCSc6ccccc6)c(C(F)(F)F)c5)cc4)CC3)c(OC)c2)c1 [B2R054-01, 4-[4-[[4-(5-Ethoxypyridin-3-yl)-2-methoxyphenyl]methyl]piperazin-1-yl]-N-[4-(2-phenylsulfanylethylamino)-3-(trifluoromethyl)phenyl]sulfonylbenzamide]	3.3	−0.8
CCOc1cccc(-c2cc(CN3CCN(c4ccc(C(=O)NS(=O)(=O)c5ccc(NCCSc6ccccc6)c(C(F)(F)F)c5)cc4)CC3)cc(OCC)c2)c1 [B2R055-01, 4-[4-[[3-Ethoxy-5-(3-ethoxyphenyl)phenyl]methyl]piperazin-1-yl]-N-[4-(2-phenylsulfanylethylamino)-3-(trifluoromethyl)phenyl]sulfonylbenzamide]	−3.3	6.3
CCOc1cncc(-c2cc(CN3CCN(c4ccc(C(=O)NS(=O)(=O)c5ccc(NCCSc6ccccc6)c(C(F)(F)F)c5)cc4)CC3)cc(OCC)c2)c1 [B2R056-01, 4-[4-[[3-Ethoxy-5-(5-ethoxypyridin-3-yl)phenyl]methyl]piperazin-1-yl]-N-[4-(2-phenylsulfanylethylamino)-3-(trifluoromethyl)phenyl]sulfonylbenzamide]		−63.9
CCOc1cccc(-c2cc(CN3CCN(c4ccc(C(=O)NS(=O)(=O)c5ccc(NCCSc6ccccc6)c(C(F)(F)F)c5)cc4)CC3)cc(OC(C)C)c2)c1 [B2R057-01, 4-[4-[[3-(3-Ethoxyphenyl)-5-propan-2-yloxyphenyl]methyl]piperazin-1-yl]-N-[4-(2-phenylsulfanylethylamino)-3-(trifluoromethyl)phenyl]sulfonylbenzamide]	5.7	−5.1
CCOc1cncc(-c2cc(CN3CCN(c4ccc(C(=O)NS(=O)(=O)c5ccc(NCCSc6ccccc6)c(C(F)(F)F)c5)cc4)CC3)cc(OC(C)C)c2)c1 [B2R058-01, 4-[4-[[3-(5-Ethoxypyridin-3-yl)-5-propan-2-yloxyphenyl]methyl]piperazin-1-yl]-N-[4-(2-phenylsulfanylethylamino)-3-(trifluoromethyl)phenyl]sulfonylbenzamide]	13.0	4.8
CCOc1cccc(-c2cc(OC)c(CN3CCN(c4ccc(C(=O)NS(=O)(=O)c5ccc(NCCSc6ccccc6)c(C(F)(F)F)c5)cc4)CC3)c(OC)c2)c1 [B2R059-01, 4-[4-[[4-(3-Ethoxyphenyl)-2,6-dimethoxyphenyl]methyl]piperazin-1-yl]-N-[4-(2-phenylsulfanylethylamino)-3-(trifluoromethyl)phenyl]sulfonylbenzamide]	0.0	0.0
CCOc1cncc(-c2cc(OC)c(CN3CCN(c4ccc(C(=O)NS(=O)(=O)c5ccc(NCCSc6ccccc6)c(C(F)(F)F)c5)cc4)CC3)c(OC)c2)c1 [B2R060-01, 4-[4-[[4-(5-Ethoxypyridin-3-yl)-2,6-dimethoxyphenyl]methyl]piperazin-1-yl]-N-[4-(2-phenylsulfanylethylamino)-3-(trifluoromethyl)phenyl]sulfonylbenzamide]	3.9	0.0
CCOc1cccc(-c2cc(CN3CCN(c4ccc(C(=O)NS(=O)(=O)c5ccc(NCCSc6ccccc6)c(C(F)(F)F)c5)cc4)CC3)cc(C(F)(F)F)c2)c1 [B2R061-01, 4-[4-[[3-(3-Ethoxyphenyl)-5-(trifluoromethyl)phenyl]methyl]piperazin-1-yl]-N-[4-(2-phenylsulfanylethylamino)-3-(trifluoromethyl)phenyl]sulfonylbenzamide]	9.1	−6.0
CCOc1cncc(-c2cc(CN3CCN(c4ccc(C(=O)NS(=O)(=O)c5ccc(NCCSc6ccccc6)c(C(F)(F)F)c5)cc4)CC3)cc(C(F)(F)F)c2)c1 [B2R062-01, 4-[4-[[3-(5-Ethoxypyridin-3-yl)-5-(trifluoromethyl)phenyl]methyl]piperazin-1-yl]-N-[4-(2-phenylsulfanylethylamino)-3-(trifluoromethyl)phenyl]sulfonylbenzamide]	0.0	0.0
